From PMC12621184, “Synthesis and Pharmacological Characterization of Nociceptin/Orphanin FQ Dimeric Ligands” (Journal of Medicinal Chemistry, 2025)
Where “and” joins values, the source holds several entries; their conditions need not be identical. Equal entries are not always repeated. Bridge positions count the residues as written; N and C are the ends. Peptide text beside a SMILES is read from it. I, II: the chains in the order shown.

What was measured:
[1] = target: T1, human μ opioid receptor (Homo sapiens, UniProt P35372); assay: Calcium mobilization assay, CHO cells with μ receptor and chimeric G protein; format: cell-based; conditions: CHO cells coexpressing human μ receptor and Gαqi5; 5 experiments in duplicate; read-out: calcium mobilization at μ receptor, concentration up to which inactive
T1 construct: expressed in transfected cells
Description: (§1) Chinese hamster ovary (CHO) cells stably coexpressing the human NOP, μ, or κ opioid receptors and the Gαqi5 protein or the human δ and the GαqG66Di5 protein were used in this assay. , Cells were cultured in DMEM/F-12 (1:1) medium supplemented with 10% FBS, 2 mM L-glutamine, […], 100 IU/mL penicillin, and 100 IU/mL streptomycin. Cells were maintained at 37 °C in a humidified atmosphere with 5% CO2 and were seeded at 50 000 cells/well into 96-well black, clear-bottom plates 24 h before test. Loading for 45 min with a solution consisting of HBSS supplemented with 2.5 mM probenecid, 3 μM Fluo-4 AM, and 0.01% pluronic acid ensures the calcium-sensitive dye (Fluo-4) reaches the needed concentration inside the cell, while the exchange of the solution with 100 μL/well of buffer consisting of HBSS with 20 mM HEPES, 2.5 mM probenecid, and 500 μM Brilliant Black allows for fluorescence background to decrease. Serial dilutions of ligands were prepared in HBSS buffer with 20 mM HEPES and 0.02% bovine serum albumin (BSA) to minimize the ligands’ stickiness to plasticware. The automated microplate reader FlexStation II (Molecular Devices, CA, US) was employed at 37 °C to detect changes in fluorescence intensity. The effects of all compounds were expressed as the maximum change in percentage over the baseline fluorescence measured in samples treated with vehicles. […]

[2] = target: T2, human δ opioid receptor (Homo sapiens, UniProt P41143); assay: Calcium mobilization assay, CHO cells with δ receptor and chimeric G protein; format: cell-based; conditions: CHO cells coexpressing human δ receptor and GαqG66Di5; 5 experiments in duplicate; read-out: calcium mobilization at δ receptor, concentration up to which inactive
T2 construct: expressed in transfected cells
Description: as §1

[3] = target: T3, human κ opioid receptor (Homo sapiens, UniProt P41145); assay: Calcium mobilization assay, CHO cells with κ receptor and chimeric G protein; format: cell-based; conditions: CHO cells coexpressing human κ receptor and Gαqi5; 5 experiments in duplicate; read-out: calcium mobilization at κ receptor, concentration up to which inactive
T3 construct: expressed in transfected cells
Description: as §1

[4] = test system: mouse vas deferens from NOP(+/+) mice; assay: Electrically stimulated mouse vas deferens bioassay, NOP(+/+) tissues
Description: (§2) This study was approved by the Animal Welfare Body of the University of Ferrara and by the Italian Ministry of Health (authorization number CBCC2.N.BXI). Experiments were performed on an isolated mouse vas deferens. All experiments were conducted with mice bred and housed in the University of Ferrara’s animal facility under specific pathogen-free conditions (SPF). All mice were housed in cages with individual ventilation, with a constant temperature of 21 °C, 60% humidity, and a 12 h light/dark cycle. Food and water were provided ad libitum. CD-1 NOP(+/+) and CD-1 NOP(−/−) male mice, aged 9 to 12 months, were used. Animals were sacrificed on the day of the experiment with CO2 overdose. Bioassay experiments were performed as previously described. The tissues were suspended in 5 mL organ bath containing Krebs solution (NaCl 118.5 […]). The Krebs solution was oxygenated with 95% O2 and 5% CO2 and the temperature set at 33 °C with a resting tension of 0.3 g applied to the tissues. Tissues were stimulated through two platinum electrodes with a supramaximal rectangular pulse of 1 ms duration, 0.05 Hz frequency, and 80 V of amplitude. The electrically evoked contractions were measured isotonically by means of Basile strain gauge transducers (Basile, IT) and a recorder with a Power Lab 8 instrument (ADInstruments, CO, U.S.). Following an equilibration period of approximately 60 min, the contractions induced by electrical field stimulation were stable. At this time, cumulative concentration response curves were carried out.
Concentration-response curves to agonists were analyzed by a four-parameter logistic nonlinear regression model: Effect = baseline + (E max – baseline)/(1 + 10^((logEC50–log[ligand])slope)). […] Experimental data were expressed as mean ± sem of at least 5 experiments. Potency values were expressed as the mean and CL95%. In vitro E max values were analyzed by one-way ANOVA, while in vivo latency data were evaluated by one-way ANOVA followed by Dunnett’s post hoc test. The proportion of mice losing the righting reflex was compared by Fisher’s exact test performed on raw data. GraphPad Prism 10.0 software was used for all of the analyses. The terminology employed is consistent with the International Union of Basic and Clinical Pharmacology (IUPHAR) recommendations. ,

[5] = test system: mouse vas deferens from NOP(−/−) mice; assay: Electrically stimulated mouse vas deferens bioassay, NOP(−/−) tissues; conditions: mVD from CD-1 NOP(−/−) mice; 5 experiments
Description: as §2
Concentration-response curves to agonists were analyzed by a four-parameter logistic nonlinear regression model: Effect = baseline + (E max – baseline)/(1 + 10^((logEC50–log[ligand])slope)). […] Experimental data were expressed as mean ± sem of at least 5 experiments. Potency values were expressed as the mean and CL95%. In vitro E max values were analyzed by one-way ANOVA, while in vivo latency data were evaluated by one-way ANOVA followed by Dunnett’s post hoc test. […]

[6] = target: T4, human NOP (Homo sapiens, UniProt P41146); assay: Calcium mobilization assay, CHO cells with NOP receptor and chimeric G protein; format: cell-based; set-up: expressed in transfected cells
[7] = target: T4, human NOP; assay: NOP receptor–G protein interaction BRET assay; format: biochemical; set-up: expressed in transfected cells; host or cells: membranes of HEK293 cells stably coexpressing NOP-RLuc and Gβ1-RGFP; conditions: N = 5 experiments in duplicate
Method in brief: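 Membranes (3 μg protein) from HEK293 cells stably coexpressing NOP-RLuc and Gβ1-RGFP were tested with 2 μM Prolume Purple coelenterazine at room temperature. BRET ratios (510/405 nm) were averaged over 10 min, vehicle-subtracted and normalized to N/OFQ maximal effect.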

T4 sequence (P41146 whole entry): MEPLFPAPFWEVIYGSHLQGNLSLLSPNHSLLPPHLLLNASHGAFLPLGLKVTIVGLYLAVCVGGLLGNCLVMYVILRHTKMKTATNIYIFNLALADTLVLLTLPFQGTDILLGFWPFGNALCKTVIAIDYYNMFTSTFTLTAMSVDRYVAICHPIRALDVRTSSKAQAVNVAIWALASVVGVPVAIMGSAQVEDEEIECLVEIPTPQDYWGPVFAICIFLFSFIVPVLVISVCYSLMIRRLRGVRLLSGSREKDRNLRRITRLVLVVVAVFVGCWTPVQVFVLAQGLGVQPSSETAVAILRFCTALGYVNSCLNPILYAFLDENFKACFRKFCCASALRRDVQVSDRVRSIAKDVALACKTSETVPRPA
T2 sequence (P41143 whole entry): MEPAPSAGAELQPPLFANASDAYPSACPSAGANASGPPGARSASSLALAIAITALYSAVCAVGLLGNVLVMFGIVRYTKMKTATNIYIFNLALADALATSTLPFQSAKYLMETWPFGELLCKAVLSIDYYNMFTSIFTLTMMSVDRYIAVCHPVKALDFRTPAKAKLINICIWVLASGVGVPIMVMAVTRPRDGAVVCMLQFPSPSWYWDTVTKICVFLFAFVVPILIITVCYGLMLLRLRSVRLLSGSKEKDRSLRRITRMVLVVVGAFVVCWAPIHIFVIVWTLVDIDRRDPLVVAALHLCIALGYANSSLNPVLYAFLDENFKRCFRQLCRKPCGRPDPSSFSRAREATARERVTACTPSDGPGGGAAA
T1 sequence (P35372 whole entry): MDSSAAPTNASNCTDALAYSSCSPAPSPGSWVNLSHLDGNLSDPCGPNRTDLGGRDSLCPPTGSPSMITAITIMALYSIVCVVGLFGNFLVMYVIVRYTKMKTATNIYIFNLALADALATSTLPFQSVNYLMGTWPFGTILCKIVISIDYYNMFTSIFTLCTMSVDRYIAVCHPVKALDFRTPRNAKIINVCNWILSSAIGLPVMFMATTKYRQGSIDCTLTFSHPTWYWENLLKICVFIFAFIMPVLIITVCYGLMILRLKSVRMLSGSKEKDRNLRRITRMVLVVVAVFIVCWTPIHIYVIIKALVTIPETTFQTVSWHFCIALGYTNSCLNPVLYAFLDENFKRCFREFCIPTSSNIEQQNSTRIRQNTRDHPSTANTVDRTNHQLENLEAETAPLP
T3 sequence (P41145 whole entry): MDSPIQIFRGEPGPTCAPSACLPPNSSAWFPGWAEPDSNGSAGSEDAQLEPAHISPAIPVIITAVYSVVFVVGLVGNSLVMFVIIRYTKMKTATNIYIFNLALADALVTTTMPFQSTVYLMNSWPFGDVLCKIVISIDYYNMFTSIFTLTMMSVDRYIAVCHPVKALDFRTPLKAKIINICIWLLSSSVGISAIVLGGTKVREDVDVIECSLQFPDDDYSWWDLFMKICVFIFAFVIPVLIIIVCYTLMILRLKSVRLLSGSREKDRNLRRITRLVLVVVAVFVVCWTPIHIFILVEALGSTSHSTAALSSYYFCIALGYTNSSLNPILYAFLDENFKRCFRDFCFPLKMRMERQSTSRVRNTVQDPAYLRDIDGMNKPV

SMILES: C[C@H](NC(=O)CNC(=O)[C@@H](NC(=O)[C@H](Cc1ccccc1)NC(=O)CNC(=O)CNC(=O)[C@@H](N)Cc1ccccc1)[C@@H](C)O)C(=O)N[C@@H](CCCNC(=N)N)C(=O)N[C@@H](CCCCN)C(=O)N[C@@H](CO)C(=O)N[C@@H](C)C(=O)N[C@@H](CCCNC(=N)N)C(=O)N[C@@H](CCCCN)C(=O)N[C@@H](CSSC[C@H](NC(=O)[C@H](CCCCN)NC(=O)[C@H](CCCNC(=N)N)NC(=O)[C@H](C)NC(=O)[C@H](CO)NC(=O)[C@H](CCCCN)NC(=O)[C@H](CCCNC(=N)N)NC(=O)[C@H](C)NC(=O)CNC(=O)[C@@H](NC(=O)[C@H](Cc1ccccc1)NC(=O)CNC(=O)CNC(=O)[C@@H](N)Cc1ccccc1)[C@@H](C)O)C(=O)N[C@@H](C)C(=O)N[C@@H](CC(N)=O)C(=O)N[C@@H](CCC(N)=O)C(N)=O)C(=O)N[C@@H](C)C(=O)N[C@@H](CC(N)=O)C(=O)N[C@@H](CCC(N)=O)C(N)=O [1h, [[Cys^14]N/OFQ-NH2]2] (I: H-FGGFTGARKSARKCANQ-NH2 / II: H-FGGFTGARKSARKCANQ-NH2; disulfide I:14-II:14; N-terminus assumed)
- EC50 [1]: > 1000 nM
- EC50 [2]: > 1000 nM
- EC50 [3]: > 1000 nM
- potency (pEC50) for inhibition of electrically induced contractions ([4]; mVD from CD-1 NOP(+/+) mice, 33 °C, mean (CL95%), 5 experiments): 6.79 (6.02–7.56)
- decrease in mVD potency compared to N/OFQ ([4]; mVD, vs N/OFQ): approximately 3 fold
- kinetics of action in mVD (in words) ([4]; onset and reversibility upon washout): fully and rapidly reversible upon washout
- effect in mVD tissues from NOP(−/−) mice (in words) [5]: no effect
- EC50 ([6]; CHO cells coexpressing human NOP and Gαqi5, Fluo-4, 37 °C, mean (CL95%), N = 5 experiments in duplicate, read-out: Ca^2+ mobilization pEC50 (CL95%) (converted)): < 1 nM and 0.724 nM
- Ca^2+ mobilization E max ± sem ([6]; CHO cells coexpressing human NOP and Gαqi5, maximum change in percentage over baseline fluorescence, mean ± sem, N = 5 in duplicate): 241 ± 38 % over the baseline
- selectivity for the NOP over classical opioid receptors ([6]; calcium mobilization, NOP vs μ, δ, κ receptors): more than 1000 fold
- NOP–G protein interaction E max ± sem ([7]; effects normalized to N/OFQ-NH2 (E max = 1), mean ± sem): 0.80 ± 0.08
- EC50 ([7]; membranes from HEK293 cells coexpressing NOP-RLuc and Gβ1-RGFP, room temperature, mean (CL95%), read-out: NOP–G protein interaction pEC50 (CL95%) (converted)): < 1 nM and 0.123 nM
